# Test results: patent US20230200390A1, “SELECTIVE HERBICIDES BASED ON SUBSTITUTED ISOXAZOLIN CARBOXAMIDES AND MEFENPYR-DIETHYL” (BAYER AKTIENGESELLSCHAFT, priority 2020, published 2023)
# Tests used:
# Type in all cases: in vivo
# [1] = system: spring wheat, TRZAS Triso; experiment: Treatment 1 day before: safener applied one day before herbicide, crop damage; conditions: 21 DAT
# Source text: (§1) Seeds of crops (spring wheat, TRZAS; spring barley, HORVS; maize, ZEAMA) were placed in sandy loam soil in pots of a diameter of 7-8 cm, covered with soil, and cultivated in a greenhouse under good growth conditions until plants were at the 1-3 leaf stage (BBCH 11-13). For split safener and herbicide treatment, first the safener was applied followed by the herbicide treatment on the following day. The safener and herbicides were formulated as WP and sprayed onto the green parts of the plants as an aqueous suspension at an equivalent water application rate of 300 l/ha, with addition of wetting agent and adjuvants (e.g. Mero, 1.5 l/ha; ammonium sulphate, 2 kg/ha). An equivalent set of plants was treated with the herbicides but without the prior safener treatment.
# (§2) After application, the test plants were kept in the greenhouse under good growth conditions. 10 and 21 days after treatment (DAT) with the herbicide, % crop damage observed on the treated plants was scored visually in comparison to control plants that had not received any safener or herbicide treatment.
# [2] = system: spring barley, HORVS Montoya; experiment: as above
# Source text: as §1, §2
# [3] = system: spring wheat, TRZAS Triso; experiment: Seed treatment with safener; post-emergence herbicide, crop damage; conditions: 21 DAT; for HER effect + SAF [%] (crop damage) / Reduction [%] / Reduction [Difference]: mefenpyr-diethyl 0.5 g a.i./kg seed; for HER effect [%] (crop damage, herbicide without safener): no safener
# Method in brief: (§3)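 Wheat and barley seeds were coated with safener (g a.i./kg seed) in a slurry prediluted with milk, then sown and grown to BBCH 12. WP herbicides with 1 l/ha MERO in 300 l/ha water were sprayed post-emergence, with untreated-seed plants as reference. Crop damage (%) was scored visually at 10 and 21 DAT.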
# [4] = system: spring barley, HORVS Montoya; experiment: as above; conditions: 21 DAT; for HER effect + SAF / Reduction [%] / Reduction [Difference]: mefenpyr-diethyl 0.5 g a.i./kg seed
# Method in brief: as §3
# [5] = system: spring wheat, TRZAS Triso; experiment: Tank-mix; post-emergence: crop damage by herbicide with/without safener mefenpyr-diethyl; conditions: 21 DAT
# Method in brief: (§4)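 Greenhouse-grown spring wheat and barley treated post-emergence at 1–3-leaf stage with herbicide alone or tank-mixed with safener, sprayed at various dosages in 300 l/ha water. Crop injury scored visually 1–3 weeks after treatment as % vs untreated (0 none, 100 complete kill).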
# [6] = system: spring barley, HORVS Montoya; experiment: as above; conditions: for HER effect + SAF / Reduction [%] / Reduction [Difference]: HER 48 g a.i./ha + mefenpyr-diethyl 100 g a.i./ha; for HER effect: herbicide alone 48 g a.i./ha
# Method in brief: as §4
# [7] = HER 25 g a.i./ha, mefenpyr-diethyl 50 g a.i./ha 1 day before
# [8] = HER 50 g a.i./ha, mefenpyr-diethyl 50 g a.i./ha 1 day before
# [9] = HER 25 g a.i./ha, mefenpyr-diethyl 50 g a.i./ha 1 day before, 21 DAT
# [10] = herbicide alone 25 g a.i./ha, 21 DAT
# [11] = HER 48 g a.i./ha post-emergence
# [12] = herbicide alone 48 g a.i./ha post-emergence
# [13] = HER 4 g a.i./ha + mefenpyr-diethyl 50 g a.i./ha
# [14] = HER 16 g a.i./ha + mefenpyr-diethyl 100 g a.i./ha
# [15] = HER 100 g a.i./ha, mefenpyr-diethyl 50 g a.i./ha 1 day before
# [16] = HER 200 g a.i./ha, mefenpyr-diethyl 50 g a.i./ha 1 day before
# [17] = HER 50 g a.i./ha, mefenpyr-diethyl 50 g a.i./ha 1 day before, 21 DAT
# [18] = HER 50 g a.i./ha, mefenpyr-diethyl 50 g a.i./ha 1 day before, 10 DAT
# [19] = HER 100 g a.i./ha, mefenpyr-diethyl 50 g a.i./ha 1 day before, 21 DAT
# [20] = HER 12 g a.i./ha post-emergence
# [21] = HER 100 g a.i./ha, mefenpyr-diethyl 100 g a.i./ha 1 day before
# [22] = HER 200 g a.i./ha, mefenpyr-diethyl 100 g a.i./ha 1 day before
# [23] = HER 100 g a.i./ha, mefenpyr-diethyl 100 g a.i./ha 1 day before, 10 DAT
smiles,measurement,setting,value
CC1(C(=O)NC2C=CC(C(=O)OCCCl)C2)CC(c2cc(F)cc(F)c2)=NO1 (mixture of isomers) [Example 1.47],HER effect + SAF,[1]; [7],35%
same,Reduction [%],[1]; [7],53%
same,Reduction [Difference],[1]; [7],40
same,HER effect + SAF,[1]; [8],60%
same,Reduction [%],[1]; [8],25%
same,Reduction [Difference],[1]; [8],20
same,HER effect,[1]; herbicide alone 25 g a.i./ha,75%
same,HER effect,[1]; herbicide alone 50 g a.i./ha,80%
same,HER effect + SAF,[2]; [9],40%
same,Reduction [%],[2]; [9],33%
same,Reduction [Difference],[2]; [9],20
same,HER effect,[2]; [10],60%
same,HER effect + SAF [%] (crop damage),[3]; HER dose 4 g a.i./ha,0%
same,Reduction [%],[3]; HER dose 4 g a.i./ha,100%
same,Reduction [Difference],[3]; HER dose 4 g a.i./ha,30
same,"HER effect [%] (crop damage, herbicide without safener)",[3]; HER dose 4 g a.i./ha,30%
same,HER effect + SAF [%] (crop damage),[3]; HER dose 16 g a.i./ha,10%
same,Reduction [%],[3]; HER dose 16 g a.i./ha,88%
same,Reduction [Difference],[3]; HER dose 16 g a.i./ha,70
same,"HER effect [%] (crop damage, herbicide without safener)",[3]; HER dose 16 g a.i./ha,80%
same,HER effect + SAF,[4]; [11],20%
same,Reduction [%],[4]; [11],76%
same,Reduction [Difference],[4]; [11],65
same,HER effect,[4]; [12],85%
same,HER effect + SAF,[5]; [13],10%
same,Reduction [%],[5]; [13],67%
same,Reduction [Difference],[5]; [13],20
same,HER effect + SAF,[5]; [14],20%
same,Reduction [%],[5]; [14],75%
same,Reduction [Difference],[5]; [14],60
same,HER effect,[5]; herbicide alone 4 g a.i./ha,30%
same,HER effect,[5]; herbicide alone 16 g a.i./ha,80%
same,HER effect + SAF,[6]; 21 DAT,60%
same,Reduction [%],[6]; 21 DAT,29%
same,Reduction [Difference],[6]; 21 DAT,25
same,HER effect,[6]; 21 DAT,85%
CC1(C(=O)NC2C=CC(C(=O)N3CCCCO3)C2)CC(c2cc(F)cc(F)c2)=NO1 (mixture of isomers) [Example 1.46],HER effect + SAF,[1]; [15],5%
same,Reduction [%],[1]; [15],92%
same,Reduction [Difference],[1]; [15],55
same,HER effect + SAF,[1]; [16],5%
same,Reduction [%],[1]; [16],94%
same,Reduction [Difference],[1]; [16],75
same,HER effect,[1]; herbicide alone 100 g a.i./ha,60%
same,HER effect,[1]; herbicide alone 200 g a.i./ha,80%
same,HER effect + SAF,[2]; [9],10%
same,Reduction [%],[2]; [9],78%
same,Reduction [Difference],[2]; [9],35
same,HER effect + SAF,[2]; [17],20%
same,Reduction [%],[2]; [17],69%
same,Reduction [Difference],[2]; [17],45
same,HER effect,[2]; [10],45%
same,HER effect,"[2]; herbicide alone 50 g a.i./ha, 21 DAT",65%
CCOC(=O)C1C=CC(NC(=O)C2(C(F)(F)F)CC(c3cc(OC)cc(OC)c3)=NO2)C1 (mixture of isomers) [Example 1.12],HER effect + SAF,[1]; [16],20%
same,Reduction [%],[1]; [16],50%
same,Reduction [Difference],[1]; [16],20
same,HER effect,[1]; herbicide alone 200 g a.i./ha,40%
same,HER effect + SAF,[2]; [18],20%
same,Reduction [%],[2]; [18],64%
same,Reduction [Difference],[2]; [18],35
same,HER effect + SAF,[2]; [19],50%
same,Reduction [%],[2]; [19],29%
same,Reduction [Difference],[2]; [19],20
same,HER effect,"[2]; herbicide alone 50 g a.i./ha, 10 DAT",55%
same,HER effect,"[2]; herbicide alone 100 g a.i./ha, 21 DAT",70%
same,HER effect + SAF,[4]; [20],0%
same,Reduction [%],[4]; [20],100%
same,Reduction [Difference],[4]; [20],20
same,HER effect + SAF,[4]; [11],20%
same,Reduction [%],[4]; [11],60%
same,Reduction [Difference],[4]; [11],30
same,HER effect,[4]; herbicide alone 12 g a.i./ha post-emergence,20%
same,HER effect,[4]; [12],50%
same,HER effect + SAF,[6]; 10 DAT,0%
same,Reduction [%],[6]; 10 DAT,100%
same,Reduction [Difference],[6]; 10 DAT,60
same,HER effect,[6]; 10 DAT,60%
CCOC(=O)C1C=CC(NC(=O)C2(C(F)(F)F)CC(c3ccccc3)=NO2)C1 (stereo not shown) [Example 1.9],HER effect + SAF,[1]; [21],20%
same,Reduction [%],[1]; [21],67%
same,Reduction [Difference],[1]; [21],40
same,HER effect + SAF,[1]; [22],25%
same,Reduction [%],[1]; [22],64%
same,Reduction [Difference],[1]; [22],45
same,HER effect,[1]; herbicide alone 100 g a.i./ha,60%
same,HER effect,[1]; herbicide alone 200 g a.i./ha,70%
same,HER effect + SAF,[2]; [23],20%
same,Reduction [%],[2]; [23],50%
same,Reduction [Difference],[2]; [23],20
same,HER effect,"[2]; herbicide alone 100 g a.i./ha, 10 DAT",40%
